# PubChem BioAssay (NCI)
#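 Each compound was tested at five concentrations against cells in 96-well plates for 48 hours. The concentration for full growth arrest is given as TGI.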
# Tests used:
# Test in all cases: NCI tumour cell line growth inhibition, 48 h
# [1] = system: NCI-H522 lung
# [2] = system: KM20L2 colon
# [3] = system: OVCAR-3 ovarian
# [4] = system: A549 NSCLC
# [5] = system: SF-539 CNS
# [6] = system: RXF 393 renal
# [7] = system: SK-MEL-2 melanoma
# [8] = system: SF-268 CNS
# [9] = system: M19-MEL melanoma
# [10] = system: DMS 273 small cell lung
# [11] = system: SW-620 colon
# [12] = system: K-562 leukemia
# [13] = system: SNB-78 CNS
# [14] = system: CCRF-CEM leukemia
# [15] = system: SNB-75 CNS
# [16] = system: UACC-257 melanoma
# [17] = system: ACHN renal
# [18] = system: MOLT-4 leukemia
# [19] = system: HCC-2998 colon
# [20] = system: SK-MEL-28 melanoma
# [21] = system: HCT-116 colon
# [22] = system: HL-60(TB) leukemia
# [23] = system: A498 renal
# [24] = system: M14 melanoma
# [25] = system: 786-0 renal
# [26] = system: SNB-19 CNS
# [27] = system: U251 CNS
# [28] = system: SK-MEL-5 melanoma
# [29] = system: UO-31 renal
# [30] = system: DLD-1 colon
# [31] = system: RPMI-8226 leukemia
# [32] = system: DMS 114 small cell lung
# [33] = system: SR leukemia
# [34] = system: NCI-H23 lung
# [35] = system: EKVX NSCLC
# [36] = system: SN12C renal
# [37] = system: XF 498 CNS
# [38] = system: COLO 205 colon
# [39] = system: SF-295 CNS
# [40] = system: MALME-3M melanoma
# [41] = system: LXFL 529 NSCLC
# [42] = system: SK-OV-3 ovarian
# [43] = system: UACC-62 melanoma
# [44] = system: HOP-18 NSCLC
# [45] = system: IGROV1 ovarian
# [46] = system: OVCAR-5 ovarian
# [47] = system: NCI-H226 lung
# [48] = system: LOX IMVI melanoma
# [49] = system: HOP-92 NSCLC
# [50] = system: HCT-15 colon
# [51] = system: TK-10 renal
# [52] = system: HT29 colon
# [53] = system: KM12 colon
# [54] = system: HOP-62 NSCLC
# [55] = system: NCI-H460 lung
# [56] = system: OVCAR-4 ovarian
# [57] = system: CAKI-1 renal
# [58] = system: OVCAR-8 ovarian
smiles,measurement,setting,value
CCOC(=O)N1CCc2cc(OC)c(OC)cc2/C1=C/c1ccc(OC)c(OC)c1,TGI,[1],> 100 µM
same,TGI,[2],> 100 µM
same,TGI,[3],> 100 µM
same,TGI,[4],> 100 µM
same,TGI,[5],> 100 µM
same,TGI,[6],> 100 µM
same,TGI,[7],> 100 µM
same,TGI,[8],> 100 µM
same,TGI,[9],> 100 µM
same,TGI,[10],> 100 µM
same,TGI,[11],> 100 µM
same,TGI,[12],> 100 µM
same,TGI,[13],> 100 µM
same,TGI,[14],> 100 µM
same,TGI,[15],> 100 µM
same,TGI,[16],> 100 µM
same,TGI,[17],> 100 µM
same,TGI,[18],> 100 µM
same,TGI,[19],> 100 µM
same,TGI,[20],> 100 µM
same,TGI,[21],> 100 µM
same,TGI,[22],65.1 µM
same,TGI,[23],> 100 µM
same,TGI,[24],> 100 µM
same,TGI,[25],> 100 µM
same,TGI,[26],> 100 µM
same,TGI,[27],> 100 µM
same,TGI,[28],44.4 µM
same,TGI,[29],> 100 µM
same,TGI,[30],> 100 µM
same,TGI,[31],56.5 µM
same,TGI,[32],> 100 µM
same,TGI,[33],> 100 µM
same,TGI,[34],> 100 µM
same,TGI,[35],> 100 µM
same,TGI,[36],> 100 µM
same,TGI,[37],98 µM
same,TGI,[38],> 100 µM
same,TGI,[39],> 100 µM
same,TGI,[40],67.6 µM
same,TGI,[41],> 100 µM
same,TGI,[42],> 100 µM
same,TGI,[43],> 100 µM
same,TGI,[44],> 100 µM
same,TGI,[45],> 100 µM
same,TGI,[46],> 100 µM
same,TGI,[47],> 100 µM
same,TGI,[48],> 100 µM
same,TGI,[49],> 100 µM
same,TGI,[50],> 100 µM
same,TGI,[51],> 100 µM
same,TGI,[52],98.4 µM
same,TGI,[53],> 100 µM
same,TGI,[54],> 100 µM
Cc1cc(Cl)ccc1N1C(=O)C(=O)C(c2nc3ccccc3o2)C(=O)C1=O,TGI,[1],> 100 µM
same,TGI,[2],> 100 µM
same,TGI,[3],> 100 µM
same,TGI,[4],> 100 µM
same,TGI,[5],> 100 µM
same,TGI,[6],> 100 µM
same,TGI,[7],> 100 µM
same,TGI,[55],> 100 µM
same,TGI,[8],> 100 µM
same,TGI,[9],> 100 µM
same,TGI,[10],> 100 µM
same,TGI,[11],> 100 µM
same,TGI,[13],> 100 µM
same,TGI,[14],> 100 µM
same,TGI,[15],> 100 µM
same,TGI,[16],> 100 µM
same,TGI,[17],> 100 µM
same,TGI,[18],> 100 µM
same,TGI,[19],> 100 µM
same,TGI,[20],> 100 µM
same,TGI,[21],> 100 µM
same,TGI,[22],> 100 µM
same,TGI,[56],> 100 µM
same,TGI,[23],> 100 µM
same,TGI,[24],> 100 µM
same,TGI,[25],> 100 µM
same,TGI,[26],> 100 µM
same,TGI,[27],> 100 µM
same,TGI,[28],> 100 µM
same,TGI,[29],> 100 µM
same,TGI,[30],> 100 µM
same,TGI,[32],> 100 µM
same,TGI,[33],> 100 µM
same,TGI,[34],> 100 µM
same,TGI,[35],> 100 µM
same,TGI,[36],> 100 µM
same,TGI,[37],> 100 µM
same,TGI,[38],> 100 µM
same,TGI,[39],> 100 µM
same,TGI,[40],> 100 µM
same,TGI,[41],> 100 µM
same,TGI,[42],> 100 µM
same,TGI,[43],> 100 µM
same,TGI,[44],> 100 µM
same,TGI,[45],> 100 µM
same,TGI,[47],> 100 µM
same,TGI,[57],> 100 µM
same,TGI,[49],> 100 µM
same,TGI,[58],> 100 µM
same,TGI,[50],> 100 µM
same,TGI,[51],> 100 µM
same,TGI,[52],> 100 µM
same,TGI,[53],> 100 µM
same,TGI,[54],> 100 µM
CC(=O)C(N=NC1CCC(S(=O)(=O)NB2N=CS2)CC1)C(=O)Nc1ccccc1C (centres undefined),TGI,[1],29.6 µM
same,TGI,[2],29.6 µM
same,TGI,[3],27 µM
same,TGI,[4],28.6 µM
same,TGI,[5],32.4 µM
same,TGI,[6],35.9 µM
same,TGI,[7],33.3 µM
same,TGI,[55],33.9 µM
same,TGI,[8],30.8 µM
same,TGI,[9],34.1 µM
same,TGI,[10],48 µM
same,TGI,[11],30 µM
same,TGI,[12],> 100 µM
same,TGI,[13],67.1 µM
same,TGI,[14],> 100 µM
same,TGI,[15],33.8 µM
same,TGI,[16],45.1 µM
same,TGI,[17],24.6 µM
same,TGI,[18],> 100 µM
same,TGI,[19],31.4 µM
same,TGI,[20],30.8 µM
same,TGI,[21],26.3 µM
same,TGI,[22],> 100 µM
same,TGI,[56],74.1 µM
same,TGI,[23],33.6 µM
same,TGI,[24],35.5 µM
same,TGI,[26],31.2 µM
same,TGI,[27],26.6 µM
same,TGI,[28],26.9 µM
same,TGI,[29],34 µM
same,TGI,[30],35.4 µM
same,TGI,[31],> 100 µM
same,TGI,[32],26.3 µM
same,TGI,[33],> 100 µM
same,TGI,[34],28.9 µM
same,TGI,[35],41.2 µM
same,TGI,[36],34.7 µM
same,TGI,[37],33.6 µM
same,TGI,[38],37.2 µM
same,TGI,[39],35.1 µM
same,TGI,[40],30.5 µM
same,TGI,[41],27.6 µM
same,TGI,[42],50.6 µM
same,TGI,[43],34.8 µM
same,TGI,[44],80 µM
same,TGI,[45],35.2 µM
same,TGI,[46],39.3 µM
same,TGI,[47],31.4 µM
same,TGI,[57],46.9 µM
same,TGI,[49],34.3 µM
same,TGI,[58],34.1 µM
same,TGI,[50],22.3 µM
same,TGI,[51],58.6 µM
same,TGI,[52],29.9 µM
same,TGI,[53],30.1 µM
same,TGI,[54],34.7 µM
